Results: patent US20210060118A1, “THERAPEUTIC HOMODIMER AND USES THEREOF” (priority 2014, published 2021)
Values joined by “and” are separate entries in the source; they are usually repeats but may differ in a detail not shown here. Identical values can stand only once. “Also recorded” adds a separate entry of the source. Like-named read-outs stand apart in the source and are kept apart here. Blank lines part the entries; values can stand above or below the molecule they belong to. Bridge positions count the residues as written; N and C are the ends. Peptide text beside a SMILES is read from it. I, II: the chains in the order shown.

What was measured:
[1] = tested on: human buccal tissue model; experiment: Human buccal tissue permeability screening (EpiOral tissue model, HPLC of supernatant); details: for Transmissibility (%): 30 minutes at 37° C.; for Peak Area by HPLC of Peptides in Solution, Post-overlay: supernatant above cells after 30 minutes at 37° C.
Method: (§1) A human buccal tissue model was used for in vitro testing of the permeability of a number of disulphide-linked homodimers.
(§2) Human oral mucosa tissue models were prepared in accordance with the standard protocols of a commercial reagent supplier (EpiOral™, MatTek Corporation; for details see http://www.mattek.com/epioral/applications/drug-delivery; see also for example Thakur et al., Drug Development and Industrial Pharmacy, 2007, 33(5), pages 513-52). In brief, the tissue models were prepared in tissue culture wells of 24-well plates containing an inner well (insert) with a microporous membrane base coated with an extracellular matrix preparation, on which the human mucosal cells were seeded. The inner well was submerged in the reagent supplier's recommended serum free culture medium which permeates through the microporous membrane to feed the cells in the insert. The cells were submerged in the culture medium for a few days, after insertion of the inner wells into the tissue culture wells and permeation of the culture medium into the inner wells, in accordance with the reagent supplier's recommendation. The inserts containing the developing tissues were then elevated to the air/liquid interface which induces stratification and differentiation. The resulting human buccal cell cultures were stratified, three dimensional tissues comprising 25-30 cell layers, non-cornified with nucleated cells extending up to the apical surface and with histology similar to that of native buccal tissue.
(§3) The buccal tissue culture inserts were transferred from the original tissue culture 24-well plates (maintained at 4° C. in sealed bags containing 5% CO2) under sterile conditions into wells of a fresh 24-well plate containing 1.0 ml of the reagent supplier's recommended serum free medium pre-warmed to 37° C. The plate was then incubated in a humidified incubator at 37° C. in a 5% CO2 atmosphere for one hour as a pre-equilibration procedure prior to dosing.
(§4) After removal of the pre-equilibrated plate from the incubator, any culture medium over the surface of the tissue was carefully removed and replaced with 100 μL of appropriately diluted homodimer solution in reagent supplier's recommended serum free culture medium (stock homodimer-containing medium). The plate was then incubated for a further 30 minutes at 37° C. in a 5% CO2 atmosphere. The plate was removed from the incubator and supernatant samples were taken from above the cells, inside the insert, and analysed by HPLC. The main peak areas for each tested peptide in the supernatants were compared to the corresponding peak areas for the tested peptides in the relevant pre-incubation samples of the stock homodimer-containing medium.

human diabetic patients = experiment: Therapeutic efficacy testing in human diabetic patients (HbA1c); type: in vivo; details: for HbA1c % Change: day 35 vs baseline; for HbA1c % Baseline (Mean ± sd.): before first dose
Method: Homodimer C was tested in human clinical trials to determine therapeutic efficacy of transmucosal delivery. Both intraoral (sublingual) delivery and peroral delivery were tested. Two further groups of patients were administered an injectable preparation of Homodimer C to allow a comparison of the effects of transmucosal delivery to the effects of injection delivery.
Diabetic patients treated with oral anti-diabetic drugs (e.g. sulfonylurea type drugs) or insulin were recruited and randomised to four patient groups: two injectable peptide groups (Groups 1 and 2) and to two oral peptide dosage groups, for delivery of Homodimer C either by sublingual administration (Group 3) or via enteric coated capsules (Group 4).
Each group was administered five doses of Homodimer C. Homodimer C was administered once weekly (at days 0, 7, 14, 21 and 28 of the study) at a dose of 2 mg (which equates to approximately 0.03 mg/kg for a notional 70 kg subject) for all four groups. The homodimer injections were intramuscular, generally into the upper arm of the subjects. The patients' current treatment was not withdrawn during the study. HbA1c levels were determined in advance of the first dose and at day 35 of the study.

[2] = tested on: human buccal tissue model
Method: as §1, §2, §3, §4

[3] = Table 1, stock homodimer-containing medium before incubation

transmissibility (absorption) across the human buccal tissue surface, in words [1]: did not demonstrate any transmissibility
Transmissibility (%) ([1]; Table 1): 0%
Peak Area by HPLC of Peptides in Solution, Pre-overlay [1, 3]: 2023
Peak Area by HPLC of Peptides in Solution, Post-overlay ([1]; Table 1): 2396
Compound: CC(C)C[C@H](NC(=O)CNC(=O)[C@H](CCCNC(=N)N)NC(=O)[C@H](CC(C)C)NC(=O)[C@@H](N)CSSC[C@H](N)C(=O)N[C@@H](CC(C)C)C(=O)N[C@@H](CCCNC(=N)N)C(=O)NCC(=O)N[C@@H](CC(C)C)C(=O)N[C@@H](CC(C)C)C(=O)N1CCC[C@H]1C(=O)N[C@@H](CC(=O)O)C(=O)N[C@@H](Cc1ccc(O)cc1)C(=O)O)C(=O)N[C@@H](CC(C)C)C(=O)N1CCC[C@H]1C(=O)N[C@@H](CC(=O)O)C(=O)N[C@@H](Cc1ccc(O)cc1)C(=O)O [Homodimer B, reference compound] (I: H-CLRGLLPDY-OH / II: H-CLRGLLPDY-OH; disulfide I:1-II:1; N-terminus and C-terminus assumed)

Transmissibility (%) ([1]; Table 1): 94.1%
Peak Area by HPLC of Peptides in Solution, Pre-overlay [1, 3]: 4142
Peak Area by HPLC of Peptides in Solution, Post-overlay ([1]; Table 1): 243
Transmissibility (%) ([1]; Table 2, triplicate cultures): 93.3% and 84.5% and 100%
Peak Area by HPLC of Peptides in Solution, Pre-overlay ([1]; Table 2, triplicate cultures, stock medium before incubation): 4142
Compound: CC(C)C[C@H](NC(=O)[C@@H]1CCCN1C(=O)[C@H](Cc1ccc(O)cc1)NC(=O)[C@H](CO)NC(=O)[C@H](CC(N)=O)NC(=O)[C@H](Cc1ccc(O)cc1)NC(=O)[C@H](CCC(N)=O)NC(=O)[C@H](CCC(N)=O)NC(=O)[C@@H](N)CSSC[C@H](N)C(=O)N[C@@H](CCC(N)=O)C(=O)N[C@@H](CCC(N)=O)C(=O)N[C@@H](Cc1ccc(O)cc1)C(=O)N[C@@H](CC(N)=O)C(=O)N[C@@H](CO)C(=O)N[C@@H](Cc1ccc(O)cc1)C(=O)N1CCC[C@H]1C(=O)N[C@@H](CC(C)C)C(=O)N[C@H](C(=O)O)[C@@H](C)O)C(=O)N[C@H](C(=O)O)[C@@H](C)O [Homodimer C] (I: H-CQQYNSYPLT-OH / II: H-CQQYNSYPLT-OH; disulfide I:1-II:1; N-terminus assumed)
transmissibility (absorption) across the human buccal tissue surface, in words [1]: transmitted efficiently; also recorded: efficient uptake
efficacy of intraoral (sublingual) or peroral routes compared with parenteral (injection) (human diabetic patients; 2 mg once weekly x5): significantly more effective
HbA1c % Change (human diabetic patients; Group 1, intramuscular injection 2 mg once weekly x5, insulin only, P = 0.045): −0.60%
HbA1c % Day 35 (Mean ± sd.) (human diabetic patients; Group 1, intramuscular injection 2 mg once weekly x5, previous treatment insulin only, n = 17): 10.74 ± 2.0%
HbA1c % Baseline (Mean ± sd.) (human diabetic patients; Group 1, intramuscular injection, previous treatment insulin only, n = 17): 11.34 ± 2.6%
HbA1c % Day 35 (Mean ± sd.) (human diabetic patients; Group 2, intramuscular injection 2 mg once weekly x5, oral anti-diabetics and/or insulin, n = 18): 9.57 ± 1.79%
HbA1c % Change (human diabetic patients; Group 2, intramuscular injection 2 mg once weekly x5, P = 0.033): −0.75%
HbA1c % Baseline (Mean ± sd.) (human diabetic patients; Group 2, intramuscular injection, previous oral anti-diabetics and/or insulin, n = 18): 10.32 ± 2.24%
HbA1c % Day 35 (Mean ± sd.) (human diabetic patients; Group 3, sublingual 2 mg once weekly x5, n = 7): 7.85 ± 2.03%
HbA1c % Change (human diabetic patients; Group 3, sublingual 2 mg once weekly x5, P = 0.005): −1.33%
HbA1c % Baseline (Mean ± sd.) (human diabetic patients; Group 3, sublingual, previous oral anti-diabetics and/or insulin, n = 7): 9.18 ± 2.64%
HbA1c % Day 35 (Mean ± sd.) (human diabetic patients; Group 4, enteric coated capsule (peroral) 2 mg once weekly x5, n = 7): 8.12 ± 1.04%
HbA1c % Change (human diabetic patients; Group 4, enteric coated capsule (peroral) 2 mg once weekly x5, P = 0.016): −1.18%
HbA1c % Baseline (Mean ± sd.) (human diabetic patients; Group 4, enteric coated capsule (peroral), previous oral anti-diabetics and/or insulin, n = 7): 9.30 ± 1.65%
side-effects in human patients (human diabetic patients; doses of approximately 2 mg (approximately 0.03 mg/kg)): without significant undesirable side-effects
mean HbA1c levels at day 35 relative to mean baseline, in words (human diabetic patients; each of Groups 1-4): significantly reduced

Peak Area by HPLC of Peptides in Solution, Post-overlay [2]: 4439
Peak Area by HPLC of Peptides in Solution, Pre-overlay [2]: 5398
Transmissibility (%) [2]: 17.7%
transmissibility (absorption) across the human buccal tissue surface, in words [2]: only poor transmissibility
Compound: CC[C@H](C)[C@H](NC(=O)[C@H](CC(N)=O)NC(=O)[C@@H](N)CSSC[C@H](N)C(=O)N[C@@H](CC(N)=O)C(=O)N[C@H](C(=O)N[C@@H](Cc1ccc(O)cc1)C(=O)N1CCC[C@H]1C(=O)N[C@@H](CO)C(=O)N[C@@H](CC(=O)O)C(=O)N[C@@H](CO)C(=O)N[C@@H](Cc1ccc(O)cc1)C(=O)N[C@H](C(=O)N[C@@H](CC(N)=O)C(=O)N[C@@H](Cc1ccc(O)cc1)C(=O)N[C@@H](CC(N)=O)C(=O)N[C@@H](CCC(N)=O)C(=O)N[C@@H](CCCCN)C(=O)N[C@@H](Cc1ccccc1)C(=O)N[C@@H](CCCCN)C(=O)N[C@@H](CC(=O)O)C(=O)O)[C@@H](C)O)[C@@H](C)CC)C(=O)N[C@@H](Cc1ccc(O)cc1)C(=O)N1CCC[C@H]1C(=O)N[C@@H](CO)C(=O)N[C@@H](CC(=O)O)C(=O)N[C@@H](CO)C(=O)N[C@@H](Cc1ccc(O)cc1)C(=O)N[C@H](C(=O)N[C@@H](CC(N)=O)C(=O)N[C@@H](Cc1ccc(O)cc1)C(=O)N[C@@H](CC(N)=O)C(=O)N[C@@H](CCC(N)=O)C(=O)N[C@@H](CCCCN)C(=O)N[C@@H](Cc1ccccc1)C(=O)N[C@@H](CCCCN)C(=O)N[C@@H](CC(=O)O)C(=O)O)[C@@H](C)O [Homodimer A] (I: H-CNIYPSDSYTNYNQKFKD-OH / II: H-CNIYPSDSYTNYNQKFKD-OH; disulfide I:1-II:1; N-terminus and C-terminus assumed)
